According to patent EP1808169B1, “Polyhydroxylated aromatic compounds for the treatment of amyloidosis and alpha-synuclein fibril diseases” (priority 1999, dated 2001):

What was measured:
[1] = system: Aβ 1-40 amyloid fibrils; test: Thioflavin T fluorometry: dose-dependent disassembly/disruption of pre-formed Aβ 1-40 fibrils; assay type: biochemical; details: 25 µM pre-fibrillized Aβ 1-40, overnight (~18 hours) at 37°C
From the text: A previously described method of measuring amyloid fibril formation utilizing Thioflavin T fluorometry (H Naiki et al., Lab. Invest. 65:104-110, 1991; H Levine III, Protein Sci. 2:404-410, 1993; H Levine III, Amyloid: Int. J. Exp. Clin. Invest. 2:1-6, 1995; H Naiki and K. Nakakuki, Lab. Invest. 74:374-383, 1996) was employed to identify potential therapeutic compounds capable of causing a disassembly/disruption of Alzheimer's Aβ 1-42 amyloid fibrils. Thioflavin T is known to bind to fibrillar amyloid proteins, and an increase in fluorescence correlates with an increase in amyloid fibril formation, whereas a decrease in fluorescence correlates with a decrease in amyloid fibrils due to disassembly and/or disruption. The Alzheimer's Aβ protein (1-42) when placed in solution, such as distilled water, tends to spontaneously form amyloid fibrils. Using this sensitive assay, any decreases or increases in fluorescence was previously shown to correlate with a decrease or increase in the amount of amyloid fibrils (see the documents cited above), allowing one to identify and quantitate the extent of potential inhibitors and/or enhancers of Alzheimer's Aβ 1-42 amyloid fibrils.
To assess the effects of each compound on potential disassembly/ disruption of preformed Aβ 1-42 fibrils, 50 µl of Aβ 1-42 with or without test compounds (described above) were added to 1.2 ml of 100µM Thioflavin T (Sigma) in 50mM NaH2PO4 (pH 6.0) for fluorometry readings. […] Fluorescence emission at 482 nm was measured on a Turner instrument-model 450 fluorometer at an excitation wavelength of 450 nm. For each determination, the fluorometer was calibrated by zeroing in the presence of the Thioflavin T reagent alone, and by setting the 50 ng/ml riboflavin (Sigma Chemical Co., St. Louis, MO) in the Thioflavin T reagent to 1800 fluorescence units. All fluorescence determinations were based on these references and any fluorescence given off by any of the compounds in the presence of the Thioflavin T reagent was always subtracted from all pertinent readings.
For all fibrillogenesis studies utilizing Thioflavin T fluorometry, as disclosed herein, comparisons of amyloid protein in the presence or absence of test compounds were based on paired Student's t tests with data shown as the mean of triplicate measurements ± standard deviation.
In this study, the potential dose-dependent effects of tannic acid and gallic acid on disassembly/ disruption of pre-formed Aβ 1-40 was assessed. In this experiment, 1 mg of Aβ 1-40 (Bachem Inc., Torrance, CA, USA; Lot # T-20824) was dissolved in 1.0 ml of double distilled water (1 mg/ml solution) and incubated for 4 days at 37°C to spontaneously induce fibril formation. 25 µM of pre-fibrillized Aβ 1-40 was then incubated overnight (~18 hours) at 37°C, in the absence or presence of increasing amounts (25µg/ml, 50µg/ml, 75µg/ml and 100µg/ml) of tannic acid or gallic acid (each in the presence of 150 mM Tris HCl, 10 mM NaCl, pH 7.0, with 0.02% sodium azide). The Aβ:compound weight ratios were therefore 4:1, 2:1, 4:3, and 1:1, respectively, 50 µl aliquots were then added to 1.2 ml of 100µM Thioflavin T (Sigma) in 50mM NaH2PO4 (pH 6.0) for fluorometry readings as described in Example 1 above.

[2] = system: Aβ 1-40 amyloid fibrils; test: Modified Congo red-Aβ spectrophotometric assay: dose-dependent disaggregation of fibrillized Aβ 1-40 (overnight incubation); assay type: biochemical; details: overnight (~18 hours) at 37°C
Protocol: In this study, a Congo red-Aβ spectrophotometric assay (Klunk et al., Anal. Biochem. 266:66-76, 1999) was modified to determine the effectiveness of polyhydroxylated aromatic compounds on the disaggregation of pre-formed Aβ 1-40 amyloid fibrils. For this assay, 1 mg of Aβ 1-40 (Bachem) was incubated for 4 days in distilled water at 37°C to spontaneously produce amyloid fibrils. 25pM of fibrillized Aβ 1-40 was then incubated in triplicate with various test compounds for 3 days at 37°C in Tris-buffered saline (TBS)(100 mM Tris; 50 mM NaCl; pH 7.0, with 0.02% sodium azide), at an Aβ:compound weight ratio of 2:1. Following incubation, 50µl of 360 µM Congo red (Sigma) in distilled water was then added to 250 µl of each incubation mixture, giving a final Aβ:Congo red molar ratio of 1:3. After 10 minutes, the absorbance at 405 nm (reference wavelength to account for the absorbance of Congo red alone at 540 nm) and 540 nm (sample absorbance where "sample" refers to Aβ alone, test compound alone, or Aβ plus test compound, all in the presence of Congo red) was determined using a Biorad Model 550 BLISA Plate Reader (Biorad, Hercules, CA, USA). The absorbance at wavelength 405 nm was automatically subtracted by the ELISA plate reader from the absorbance at wavelength 540 nm (difference is referred to as Δ absorbance)(see Klunk et al. cited above). Therefore, the Δ absorbance reading at 540 nm was proportional to the amount of aggregated Aβ left in solution (Klunk et al.).
For all experiments involving test compounds, the Δ absorbance reading at 540 nm of the test compound alone (in the absence of Aβ), was always subtracted from the corresponding Δ absorbance reading at 540 nm of the test compound in the presence of Aβ. Using this modification of the method of Klunk et al., the use of a greater final concentration of Congo red, i.e. 60µM instead of 14µM, in the presence of fibrillar Aβ gave an overall absorbance at 540 nm that was always below 1.0 Absorbance Unit (AU), and well within the linear absorbance range.
In this study, the potential dose-dependent effects of tannic acid and gallic acid on the disaggregation of fibrillized Aβ 1-40 was assessed. In this experiment, the modified Congo red-Aβ spectrophotometric assay (Klunk et al, Anal. Biochem. 266:66-76, 1999) was used as described above (i.e. Example 4). However, in this specific experiment increasing amounts of tannic acid or gallic acid (i.e. 25µg/ml, 50µg/ml, 75µg/ml and 100µg/ml) were tested following an overnight (~18 hours) incubation at 37°C in the presence of 25pM of Aβ 1.40 (Bachem).

[3] = Aβ:compound w/w ratio 1:1 (100µg/ml compound)
[4] = Aβ:compound w/w ratio 2:1 (50µg/ml compound)
[5] = Aβ:compound w/w ratio 4:1 (25µg/ml compound)
[6] = Aβ:compound w/w ratio 4:3 (75µg/ml compound)
[7] = w/w ratio 2:1 (50µg/ml compound)
[8] = w/w ratio 4:1 (25µg/ml compound)
[9] = w/w ratio 4:3 (75µg/ml compound)

Row | SMILES | Fluorescence inhibition, %, at the Aβ 1.40:compound w/wratios given [1, 3] [%] | Fluorescence inhibition, %, at the Aβ 1.40:compound w/wratios given [1, 4] [%] | Fluorescence inhibition, %, at the Aβ 1.40:compound w/wratios given [1, 5] [%] | Fluorescence inhibition, %, at the Aβ 1.40:compound w/wratios given [1, 6] [%] | Decrease in absorbance, %, at the Aβ 1-40:compound w/w ratios given [2, 7] [%] | Decrease in absorbance, %, at the Aβ 1-40:compound w/w ratios given [2, 8] [%] | Decrease in absorbance, %, at the Aβ 1-40:compound w/w ratios given [2, 9] [%] | Decrease in absorbance, %, at the Aβ 1-40:compound w/w ratios given ([2]; w/w ratio 1:1 (100µg/ml compound)) [%]
1 | O=C(O)c1cc(O)c(O)c(O)c1 [Gallic acid, gallic acid] | 45 ± 4.1 | 22 ± 3.3 | 14 ± 8.2 | 34 ± 3.6 | 22 ± 4.0 | 17 ± 9.5 | 30 ± 6.0 | 
2 | O=C(OC[C@H]1O[C@@H](OC(=O)c2cc(O)c(O)c(OC(=O)c3cc(O)c(O)c(O)c3)c2)[C@H](OC(=O)c2cc(O)c(O)c(OC(=O)c3cc(O)c(O)c(O)c3)c2)[C@@H](OC(=O)c2cc(O)c(O)c(OC(=O)c3cc(O)c(O)c(O)c3)c2)[C@@H]1OC(=O)c1cc(O)c(O)c(OC(=O)c2cc(O)c(O)c(O)c2)c1)c1cc(O)c(O)c(OC(=O)c2cc(O)c(O)c(O)c2)c1 [Tannic acid, tannic acid] | 53 ± 4.2 | 42 ± 2.8 | 31 ± 4.8 | 49 ± 3.7 | 48 ± 6.8 | 42 ± 5.2 | 59 ± 6.4 | 61 ± 11.1
